Test results: patent publication US8748383B2, “Method for treating bone related diseases and calcium disorders” (Novartis AG, priority 2003, dated 2014)

Tests used:
[1] = Water solubility of delivery agent
[2] = in vivo

water solubility [1]	absorbed by the gastro-intestinal tract [2]	Structure (SMILES)
very water soluble	–	O=C(O)CCCCCCCNC(=O)c1cc(Cl)ccc1O [5 CNAC, N-(5-chlorosalicyloyl)-8-aminocaprylic acid]
–	greater than 90%	O=C(O)CCCCCCCCCNC(=O)c1ccccc1O [SNAD, N-(10-[2-hydroxybenzoyl]amino)decanoic acid]
